How the values were obtained:
[1] = system: GC B cells and non-GC B cells in spleen cell cultures; assay: Mouse splenocyte flow cytometry immunology experiments; assay type: cell-based
Procedure: Male C57BL/6 mice were immunised in both flanks subcutaneously with CFA (100 μl of 4 mg/ml CFA). On day 8 the animals were terminated, spleens harvested and processed to single cell suspensions.
Splenocytes were resuspended in complete media (RPMI 1640+10% foetal calf serum, supplemented with 4 mM L-glutamine, 100 U/ml-100 μg/ml) penicillin/streptomycin and 50 μM B-mercaptoethanol (Gibco)). The cells were activated for 48 hours with 2 μg/ml αCD40 (ThermoFisher)+[…] IL-4 (Bio-techne) at 37° C. in a humidified CO2 incubator. Example 4b was added at the same time as activation in an 8-point dose titration. Following the culture period, cells were collected, washed with PBS (Gibco) and selected wells were counted using a LUNA™ Counter (Logos Biosystems).
Harvested cells were washed in PBS (Gibco) and stained with Invitrogen™ eBioscience™ Fixable Viability Dye eFluor 780 (Fisher scientific), then FcR blocked (Miltenyi Biotec) and stained with surface receptor antibodies (see Table 3 below). Cells were then washed in flow cytometry buffer (PBS supplemented with 1% BSA and 0.05% azide) and the secondary streptavidin was added. Cells were then washed, fixed and permeabilized in Transcription factor staining buffer (Fisher scientific); according to the manufacturer's instructions. Intracellular antibodies were then added to the samples. Following final washes, cells were fixed in 1% PFA and acquired on a BD LSR Fortessa™ (BD Bioscience). All analysis was carried out using FlowJo software v10.
In order to test the hypothesis that degradation or inhibition of Bcl6 may be able to modulate primary cells of the immune system, resulting in a decrease in their potential to generate autoantibodies, the above experiment was performed. Mice were immunised in order to drive the generation of germinal centre (GC) B cells. Spleens were then cultured in the presence or absence of a Bcl6 inhibitor (Example 4b) for 48 hours and non-GC B cells or GC B cells were identified using flow cytometry (FIG. 1).

[2] = biological target: T1, Trx-6×His-BCL6 (human BCL6 BTB domain covering amino-acid sequence 5-129) (Homo sapiens, UniProt P41182); assay: HTRF assay (BCL6 / BCOR peptide); assay type: binding; settings: 1 nM Trx-6×His-BCL6, 300 nM BCOR-AF633 peptide, 2 hours incubation at room temperature; read-out: HTRF avg pIC50 (converted)
T1 construct: made in house
Procedure: After 2 hours incubation at room temperature the plate was read on a Pherastar FSX (BMG Labtech) plate reader equipped with 337 nm laser excitation filter, a first emission filter at 620 nm and a second emission filter at 665 nm. The % inhibition at each concentration was calculated by normalising FRET ratio to the appropriate high (DMSO with all reagents) and low (DMSO without BCL6) controls.

Cn1c(=O)c2c(c3cc(Nc4ccnc(F)c4Cl)ccc31)N[C@@H](C1CC1)C(F)(F)CO2 [Example 4b, (S)-10-((3-chloro-2-fluoropyridin-4-yl)amino)-2-cyclopropyl-3,3-difluoro-7-methyl-1,2,3,4-tetrahydro-[1,4]oxazepino[2,3-c]quinolin-6(7H)-one]
numbers of GC B cells as determined by expression of the lineage markers GL7 and CD95 ([1]; spleen cell cultures, 48 hours, at 10 μM (FIG. 4)): decreased | BCL6 expression in non-GC B cells (GeoMFI, flow cytometry) ([1]; splenocytes of CFA-immunised C57BL/6 mice, activated 48 hours with αCD40 + IL-4, various concentrations (FIG. 2)): did not result in a reduction | Blimp expression by GC B cells (GeoMFI, flow cytometry) ([1]; splenocytes of CFA-immunised C57BL/6 mice, activated 48 hours with αCD40 + IL-4, various concentrations (FIG. 3)): increase | IC50 [2]: 6.31 nM

Reference: US12528826B2, “[1,4]oxazepino[2,3-c]quinolinone derivatives as BCL6 inhibitors” (Cancer Research Technology Limited, priority 2019, dated 2026)
